Measured values from paper PMC3955162 (Nature neuroscience, 2013).
Numbering of substitutions follows the chain as printed.

Experiments:
ACR-23 [1] = molecular target: T1, ACR-23 (Caenorhabditis elegans, UniProt G5EG88); assay: two-electrode voltage clamp in Xenopus oocytes; format: cell-based
T1 sequence (G5EG88 20-545): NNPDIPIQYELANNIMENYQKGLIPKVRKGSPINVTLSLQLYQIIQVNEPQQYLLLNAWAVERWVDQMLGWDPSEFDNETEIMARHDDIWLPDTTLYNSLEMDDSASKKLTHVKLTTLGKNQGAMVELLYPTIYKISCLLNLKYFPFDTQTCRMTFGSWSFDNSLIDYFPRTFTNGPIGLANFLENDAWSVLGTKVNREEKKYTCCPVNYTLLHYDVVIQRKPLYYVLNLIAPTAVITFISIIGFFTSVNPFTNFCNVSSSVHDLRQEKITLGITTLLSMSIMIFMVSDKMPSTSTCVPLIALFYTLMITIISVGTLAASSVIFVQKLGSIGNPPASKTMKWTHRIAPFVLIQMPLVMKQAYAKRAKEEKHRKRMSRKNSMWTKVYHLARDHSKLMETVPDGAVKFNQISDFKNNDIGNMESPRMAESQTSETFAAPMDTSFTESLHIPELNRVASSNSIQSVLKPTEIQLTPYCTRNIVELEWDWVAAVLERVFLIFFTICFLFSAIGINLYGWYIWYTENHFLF

ACR-23(I301N) = molecular target: T2, ACR-23(I301N) (Caenorhabditis elegans, UniProt G5EG88, I301N); assay: two-electrode voltage clamp in Xenopus oocytes expressing ACR-23; format: cell-based
T2 sequence (G5EG88 20-545 I301N): T1 sequence (G5EG88 20-545) with I282N

ACR-23 [2] = molecular target: T1, ACR-23; assay: as above; format: cell-based
[3] = substrate: C[N+](C)(C)CC(=O)O; assay: cells, lysate or membranes; settings: Na+ and Cl−

C[C@](C#N)(COc1cc(C#N)ccc1C(F)(F)F)NC(=O)c1ccc(SC(F)(F)F)cc1 [monepantel]
two-electrode voltage clamp in Xenopus oocytes; potentiation of 1 mM betaine cur (ACR-23 [1]): 300 pM

C[N+](C)(C)CC(=O)O [betaine, N, N, N-trimethylglycine]
EC50 (ACR-23(I301N)): 166 µM
EC50 (ACR-23 [2]): 1400 µM

B1: SNF-3 (Caenorhabditis elegans) (protein)
chain: MGTSEHVPLPTDEAKAKELEQSQHSEEPDRGQWTGKFDFLMSMVAYAVGLGNVWRFPYLCYKNGGGSFLVVYMIFFCLAAVPIFLMEVTVGQYLQKGAMEMWLMCPLFRGVGIGNVVIAFMCIAYFCVIVAWAMFYMISSIAWVFPWETCNNYWNDATCVTGKENFTELARIKALVASAGGHTQTSVEQFWEKRVLHDTGDISEFGGIQWELFFIMAAAWLIVYFALWKGITQARKFVYFCALFPYVLIFILLIRGLTLEGAGTGIYFYLKPNATRLLDTAVWKDAGTQVFYSYGVGFGALIALGSHNKFNHNCFKDAITMCFINGCTSITAGFAVFSILGYMSHVAQKDISEIVKPGVGLAFLAYPEVASNLPMKQVFAVLFFLMITILGLDSQVCMMEGLFTALEDAFPILRKYKKQSLGIFCLFFFCIGIPMVTHSGSHWLTLFDAYGASGYALLFVVFFEVVGLAYGFGAHNIRKALHEMIGVTLPKGIEYVWKFCAPATSLVLFVFCVVYYHPVKYPDGKDFPFWANAFGWFLSSCSMVVIPGYAIYYLFFTNKHLTLKERVRKGLNLDGSFESPAKKNLVNNAEELKFIESSSQ
Km [3]: 320 ± 50 µM
